Assay: recombinant UMI read abundance after kanamycin selection (control-corrected) (log10(CPM+1)); higher = more efficient recombination; extreme values may be limits of the assay; sequences stand for … in AGTGCAGAGAAAATCGGCCAGTTTTCTCTGCCTGCAGTCCGCATGCCGTGGGACCCCTTGGGTTCTAACCTGTTGCCTAGATTTATGCAGCGGACTGCCTTTCTCCCAAAGTGATAAACCGG…AGGTTGGTTTCACT; site = the 11-nt donor
Method in brief: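 Two replicates each of selected and unselected plating were used in this pooled Escherichia coli screen of donor and donor-binding-loop pairs for the IS621 bridge recombinase. Selection was with IPTG (0.07 mM) and kanamycin. Counts of recombinant UMIs, amplified across the donor–target junction, were converted to CPM, averaged, scaled by control-derived factors and reported as log10(CPM+1).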
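Also: IS621 bridge recombinase in Escherichia coli cells against a fixed T5 target plasmid.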

Row | Sequence | recombinant UMI read abundance (log10)
1 | AGGTCAGCATGGACCGGTTTTCCCGGTAATCCGTATTTGGG (site AGCTCAGCTCC) | 0.0149
2 | AGGTCAGCATGGACCGGTTTTCCCGGTAATCCGTATTTGGG (site AGGTCAGCTCC) | 0.00675
3 | AGGTCAGCATGGACCGGTTTTCCCGGTAATCCGTATTTGGG (site AGTTCAGCTCC) | 0.0281
4 | AGGTCATCATGGACCGGTTTTCCCGGTAATCCGTATTTGCT (site AGGTCATCTAG) | 1.48
5 | AGGTCATCATGGACCGGTTTTCCCGGTAATCCGTATTTGCT (site CGATCATCTAG) | 0
6 | AGGTCGGCATGGACCGGTTTTCCCGGTAATCCGTATTTGGC (site AGGTCGGCTGC) | 2.13
7 | AGGTTCACATGGACCGGTTTTCCCGGTAATCCGTATTTGTG (site AGGTTCACTCA) | 0.0184
8 | AGGTTCACATGGACCGGTTTTCCCGGTAATCCGTATTTGTG (site AGGTTCCCTCA) | 0
9 | AGGTTCACATGGACCGGTTTTCCCGGTAATCCGTATTTGTG (site AGGTTCGCTCA) | 0.00639
10 | AGGTTCACATGGACCGGTTTTCCCGGTAATCCGTATTTGTG (site AGGTTCTCTCA) | 0.00699
11 | AGGTTCCCATGGACCGGTTTTCCCGGTAATCCGTATTTGCG (site AGGTTCCCTCA) | 0.0159
12 | AGGTTCCCATGGACCGGTTTTCCCGGTAATCCGTATTTGCG (site AGGTTCCCTCC) | 0.0204
13 | AGGTTCCCATGGACCGGTTTTCCCGGTAATCCGTATTTGCG (site AGGTTCCCTCG) | 0.236
14 | AGGTTCCCATGGACCGGTTTTCCCGGTAATCCGTATTTGCG (site AGGTTCCCTCT) | 0.00665
15 | AGGTTCCCATGGACCGGTTTTCCCGGTAATCCGTATTTGGT (site AGGTTCCCTAC) | 0.474
16 | AGGTTCTCATGGACCGGTTTTCCCGGTAATCCGTATTTGTG (site AGGTTCACTCA) | 0.205
17 | AGGTTCTCATGGACCGGTTTTCCCGGTAATCCGTATTTGTG (site AGGTTCCCTCA) | 0.22
18 | AGGTTCTCATGGACCGGTTTTCCCGGTAATCCGTATTTGTG (site AGGTTCGCTCA) | 0.0171
19 | AGGTTCTCATGGACCGGTTTTCCCGGTAATCCGTATTTGTG (site AGGTTCTCTCA) | 2.32

Row | Sequence | recombinant UMI read abundance (log10)
20 | AGGTTTCCATGGACCGGTTTTCCCGGTAATCCGTATTTGTG (site AGGTTACCTCA) | 0.0337
21 | AGGTTTCCATGGACCGGTTTTCCCGGTAATCCGTATTTGTG (site AGGTTCCCTCA) | 0.192
22 | AGGTTTCCATGGACCGGTTTTCCCGGTAATCCGTATTTGTG (site AGGTTGCCTCA) | 0.00446
23 | AGGTTTCCATGGACCGGTTTTCCCGGTAATCCGTATTTGTG (site AGGTTTCCTCA) | 0.271
24 | AGTAACGCATGGACCGGTTTTCCCGGTAATCCGTATTTGGG (site AGTAACGCTCC) | 0.161
25 | AGTAAGACATGGACCGGTTTTCCCGGTAATCCGTATTTGAG (site AGTAAGACTCT) | 1.72
26 | AGTAAGACATGGACCGGTTTTCCCGGTAATCCGTATTTGCA (site AGAAAGACTTG) | 1.66
27 | AGTAAGACATGGACCGGTTTTCCCGGTAATCCGTATTTGCA (site AGCAAGACTTG) | 2.39
28 | AGTAAGACATGGACCGGTTTTCCCGGTAATCCGTATTTGCA (site AGGAAGACTTG) | 1.31
29 | AGTAAGACATGGACCGGTTTTCCCGGTAATCCGTATTTGCA (site AGTAAGACTTG) | 2.57
30 | AGTAAGACATGGACCGGTTTTCCCGGTAATCCGTATTTGCC (site AGGAAGACTTG) | 0.00684
31 | AGTAAGACATGGACCGGTTTTCCCGGTAATCCGTATTTGCC (site AGTAAGACTGG) | 2.13
32 | AGTAATCCATGGACCGGTTTTCCCGGTAATCCGTATTTGGT (site AGTAATCCTAC) | 0.00506
33 | AGTACAGCATGGACCGGTTTTCCCGGTAATCCGTATTTGCC (site AGTACAGCTGG) | 2.27
34 | AGTACTACATGGACCGGTTTTCCCGGTAATCCGTATTTGAC (site AGAACTACTGT) | 0.731
35 | AGTACTACATGGACCGGTTTTCCCGGTAATCCGTATTTGAC (site AGCACTACTGT) | 0
36 | AGTACTACATGGACCGGTTTTCCCGGTAATCCGTATTTGAC (site AGGACTACTGT) | 1.71
37 | AGTACTACATGGACCGGTTTTCCCGGTAATCCGTATTTGAC (site AGTACTACTGT) | 1.28
